The record followed here is ChEMBL document CHEMBL1201862, “PubChem BioAssay data set” (2004).

Some test systems named below: A549; CAKI-1; CCRF-CEM; HL-60; MCF7; MDA-MB-435; MDA-N; NCI-H226; NCI-H460; NCI/ADR-RES; OVCAR-3; PC-3; RPMI-8226; SK-MEL-28; SK-OV-3; SNB-19; SR; T47D; TK-10; UO-31.
Holding throughout (test): NCI tumour cell line growth inhibition, 48 h

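Compound exposure: 48 hours, 5 concentrations, 96-well plates. Abbreviation: GI50, concentration required for 50% inhibition of growth.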 Active and inactive are the calls of the source. Rule as the data show it: active = GI50 up to about 1.1 µM and inactive = higher. A value given as a limit tells only on which side of the number the result lay.

For the molecule `C=CC[C@@]1(OC(C)=O)C(=O)C(=O)OC1C1COC(C)(C)O1` (stereo not given in full), the GI50 with A549 was 24.1 µM (inactive); with CAKI-1 it was 2.08 µM (inactive); with CCRF-CEM, 6.04 µM (inactive); in the experiment with HL-60, 10.8 µM (inactive); in the experiment on MCF7, 17.3 µM (inactive); in the experiment on MDA-MB-435, 16.8 µM (inactive). Further, the GI50 is 16.5 µM (inactive) in the experiment on MDA-N; 35.3 µM (inactive) with NCI-H226; 17.9 µM (inactive) in the experiment on NCI-H460; 25.3 µM (inactive) in the experiment with NCI/ADR-RES; 17.1 µM (inactive) in the experiment with OVCAR-3; 20.4 µM (inactive) in the experiment with PC-3. Further, the GI50 with RPMI-8226 is 12.4 µM (inactive); with SK-MEL-28, 18.8 µM (inactive); in the experiment with SK-OV-3 it was 42.5 µM (inactive); in the experiment on SNB-19, 70.5 µM (inactive); in the experiment on SR it was 15.2 µM (inactive); with T47D it was 16 µM (inactive). Moreover, the GI50 was 16.3 µM (inactive) with TK-10 and 17.6 µM (inactive) in the experiment with UO-31.

Take `Cc1ccc([S+](c2ccccc2)c2cc(C)ccc2C)cc1.O=C(OC(C(=O)[O-])C(OC(=O)c1ccccc1)C(=O)O)c1ccccc1` (stereo not given): the GI50 in the experiment on A549 is 8.87 µM (inactive); in the experiment on CAKI-1, 14.6 µM (inactive); in the experiment with CCRF-CEM, 12.8 µM (inactive); in the experiment with HL-60, 3.13 µM (inactive); in the experiment with MCF7, 4.88 µM (inactive); in the experiment on MDA-MB-435, 5.3 µM (inactive). Moreover, the GI50 in the experiment on MDA-N was 3.89 µM (inactive); in the experiment with NCI-H226, 15.4 µM (inactive); in the experiment on NCI-H460 it was 10.7 µM (inactive); in the experiment with NCI/ADR-RES, > 100 µM (inactive); in the experiment with OVCAR-3 it was 3.14 µM (inactive); in the experiment on PC-3, 2.83 µM (inactive). In addition, the GI50 with RPMI-8226 was 2 µM (inactive); in the experiment on SK-MEL-28 it was 17.6 µM (inactive); in the experiment with SK-OV-3 it was 16.9 µM (inactive); with SNB-19, 4.83 µM (inactive); in the experiment with SR, 1.85 µM (inactive); in the experiment with T47D it was 6.98 µM (inactive). Besides, the GI50 in the experiment with TK-10 is 18.2 µM (inactive); with UO-31 it was 38 µM (inactive).

As for `Cc1cc2c(c(/C=N/c3ccc(N(C)C)cc3)c1)OC1(C=C2)Oc2ccccc2C(=O)N1C` (stereo not given), the GI50 was 20.1 µM (inactive) in the experiment with A549; 14.6 µM (inactive) in the experiment with CAKI-1; 2.71 µM (inactive) in the experiment with CCRF-CEM; 3.54 µM (inactive) with HL-60; 16.2 µM (inactive) with MCF7; 13 µM (inactive) in the experiment on MDA-MB-435. Moreover, the GI50 with MDA-N is 12.5 µM (inactive); in the experiment on NCI-H226 it was 23.9 µM (inactive); with NCI-H460, 18.7 µM (inactive); in the experiment with NCI/ADR-RES it was 16.5 µM (inactive); in the experiment on OVCAR-3 it was > 35.2 µM (inactive); in the experiment on PC-3, > 35.5 µM (inactive). In addition, the GI50 is 5.96 µM (inactive) with RPMI-8226; 16 µM (inactive) with SK-MEL-28; 24.4 µM (inactive) in the experiment on SK-OV-3; 7.96 µM (inactive) in the experiment with SNB-19; 54.2 µM (inactive) in the experiment on SR; 12.5 µM (inactive) in the experiment with T47D. Further, the GI50 in the experiment on TK-10 is 16.3 µM (inactive); with UO-31, 9.2 µM (inactive).

Regarding `COC(=O)[C@@H]1C=C[C@H](OC2OC(COC(C)=O)C(OC(C)=O)C(OC(C)=O)C2OC(C)=O)n2c(=O)n(-c3ccccc3)c(=O)n21` (stereo not given in full), the GI50 with A549 was 14.7 µM (inactive); with CAKI-1, 1.2 µM (inactive); in the experiment on CCRF-CEM it was 1.48 µM (inactive); in the experiment with HL-60 it was 1.1 µM (active); with MCF7 it was 2.35 µM (inactive); in the experiment on MDA-MB-435, 5.14 µM (inactive). Further, the GI50 with MDA-N is 2.57 µM (inactive); in the experiment with NCI-H226 it was 12.2 µM (inactive); in the experiment on NCI-H460, 14 µM (inactive); in the experiment on NCI/ADR-RES, 6.92 µM (inactive); in the experiment on OVCAR-3 it was 1.74 µM (inactive); in the experiment on PC-3 it was 2.77 µM (inactive). In addition, the GI50 in the experiment on RPMI-8226 is 1.47 µM (inactive); in the experiment on SK-MEL-28, 2.33 µM (inactive); with SK-OV-3 it was 15.9 µM (inactive); with SNB-19, 11.4 µM (inactive); in the experiment on SR it was 1.82 µM (inactive); in the experiment on T47D, 2.57 µM (inactive). The figures for the GI50 with TK-10 and in the experiment on UO-31 were 1.79 µM (inactive) and 2.24 µM (inactive), respectively.

With `O=C1CSC(c2cccc(Cl)c2)N1c1c(O)c(Cl)cc(Br)c1Cl` (stereo not given), the GI50 with A549 is 53.3 µM (inactive); with CAKI-1, > 100 µM (inactive); in the experiment with CCRF-CEM, 19.8 µM (inactive); in the experiment with HL-60, 25.8 µM (inactive); in the experiment with MCF7, 15.6 µM (inactive); with MDA-MB-435, 17.1 µM (inactive). The GI50 in the experiment on MDA-N was 17.1 µM (inactive); in the experiment on NCI-H226, 30.2 µM (inactive); with NCI-H460, > 100 µM (inactive); in the experiment on NCI/ADR-RES it was 71 µM (inactive); with OVCAR-3, 16.9 µM (inactive); with PC-3 it was 36.1 µM (inactive). The GI50 in the experiment with RPMI-8226 is 15.9 µM (inactive); in the experiment with SK-MEL-28, > 100 µM (inactive); with SK-OV-3, > 100 µM (inactive); with SNB-19, > 100 µM (inactive); in the experiment with SR, 24.8 µM (inactive); in the experiment with T47D, 17.1 µM (inactive). Also, the figures for the GI50 in the experiment on TK-10 and in the experiment with UO-31 were 83.4 µM (inactive) and 15.6 µM (inactive), respectively.

In the case of `O=C1c2cc([N+](=O)[O-])sc2C(=O)c2c([N+](=O)[O-])csc21`, the GI50 was 1.9 µM (inactive) in the experiment with A549; 1.11 µM (active) in the experiment on CAKI-1; 0.0759 µM (active) in the experiment with CCRF-CEM; 0.0382 µM (active) with HL-60; 0.365 µM (active) with MCF7; 0.168 µM (active) in the experiment with MDA-MB-435. Moreover, the GI50 in the experiment on MDA-N is 0.189 µM (active); with NCI-H226, 1.52 µM (inactive); in the experiment on NCI-H460 it was 1.55 µM (inactive); in the experiment on NCI/ADR-RES, 1.48 µM (inactive); in the experiment on OVCAR-3, 0.122 µM (active); with PC-3, 1.33 µM (inactive). Besides, the GI50 in the experiment with RPMI-8226 was 0.282 µM (active); with SK-MEL-28 it was 0.713 µM (active); with SK-OV-3, 1.68 µM (inactive); in the experiment with SNB-19, 1.63 µM (inactive); in the experiment on SR, 0.0479 µM (active); in the experiment with T47D it was 0.69 µM (active). Also, the GI50 in the experiment on TK-10 is 1.63 µM (inactive); with UO-31 it was 1.87 µM (inactive).

With `CCOC(=O)C(=CNC(=S)Nc1c(CC)cccc1CC)C(=O)OCC`, the GI50 in the experiment with A549, in the experiment with CAKI-1, in the experiment on CCRF-CEM, in the experiment with HL-60, in the experiment with MCF7 and in the experiment with MDA-MB-435 was > 100 µM (inactive) throughout. The GI50 in the experiment on MDA-N, with NCI-H226, with NCI-H460, in the experiment with NCI/ADR-RES, with OVCAR-3 and in the experiment on PC-3 was > 100 µM (inactive) throughout. The GI50 in the experiment with RPMI-8226, with SK-MEL-28, with SK-OV-3, in the experiment with SNB-19, in the experiment on SR and in the experiment with T47D was > 100 µM (inactive) each time. For the same molecule, the GI50 in the experiment with TK-10 and in the experiment on UO-31 was > 100 µM (inactive) in each case.

Turning to `C=CCc1cc(C=C(C#N)C#N)cc(OC)c1O`, the GI50 in the experiment on A549 was > 100 µM (inactive); in the experiment with CAKI-1, > 100 µM (inactive); in the experiment with CCRF-CEM, 46.9 µM (inactive); in the experiment on HL-60, 28.2 µM (inactive); in the experiment on MCF7, 53.1 µM (inactive); with MDA-MB-435, 59 µM (inactive). Also, the GI50 with MDA-N was > 100 µM (inactive); in the experiment on NCI-H226, > 100 µM (inactive); in the experiment with NCI-H460, > 100 µM (inactive); in the experiment with NCI/ADR-RES, > 100 µM (inactive); in the experiment with OVCAR-3, 35.2 µM (inactive); in the experiment with PC-3 it was 35.8 µM (inactive). For the same molecule, the GI50 was 39.4 µM (inactive) in the experiment with RPMI-8226; > 100 µM (inactive) with SK-MEL-28; > 100 µM (inactive) in the experiment with SK-OV-3; > 100 µM (inactive) with SNB-19; 42.7 µM (inactive) in the experiment on SR; 38.9 µM (inactive) with T47D. For the same molecule, the GI50 in the experiment on TK-10 and in the experiment on UO-31 was > 100 µM (inactive) in each case.

On to `CCN(CC)CC1CCCCN1CC(=O)N1c2ccccc2NC(=O)c2ccccc21` (stereo not given), for which the GI50 in the experiment with A549, with CAKI-1, in the experiment with CCRF-CEM, in the experiment on HL-60, in the experiment on MCF7 and with MDA-MB-435 was > 100 µM (inactive) in each case. For the same molecule, the GI50 in the experiment on MDA-N, with NCI-H226, with NCI-H460, with NCI/ADR-RES, in the experiment with OVCAR-3 and in the experiment with PC-3 was > 100 µM (inactive) throughout. For the same molecule, the GI50 with RPMI-8226, in the experiment with SK-MEL-28, with SK-OV-3, in the experiment with SNB-19, in the experiment with SR and with T47D was > 100 µM (inactive) in each case. The GI50 with TK-10 is > 100 µM (inactive); with UO-31 it was 23.9 µM (inactive).

On to `COc1ccc(SCc2cc(OC)c(OC)c(OC)c2)cc1OC`, for which the GI50 with A549 is 43.8 µM (inactive); in the experiment with CAKI-1, 44.5 µM (inactive); with CCRF-CEM it was 64.9 µM (inactive); in the experiment on HL-60, 30.8 µM (inactive); with MCF7 it was 28.8 µM (inactive); in the experiment with MDA-MB-435, 11.2 µM (inactive). For the same molecule, the GI50 with MDA-N was 24.5 µM (inactive); in the experiment on NCI-H226, 51.6 µM (inactive); with NCI-H460, > 79.6 µM (inactive); in the experiment on NCI/ADR-RES, 32.4 µM (inactive); in the experiment with OVCAR-3, > 56 µM (inactive); in the experiment with PC-3 it was 31.3 µM (inactive). Besides, the GI50 in the experiment with RPMI-8226 was 33.3 µM (inactive); in the experiment on SK-MEL-28, > 73.8 µM (inactive); in the experiment with SK-OV-3 it was 50.1 µM (inactive); in the experiment on SNB-19, > 81.1 µM (inactive); with SR, 53.8 µM (inactive); in the experiment on T47D, 13.4 µM (inactive). Besides, the figures for the GI50 in the experiment on TK-10 and in the experiment on UO-31 were > 91.4 µM (inactive) and 27.9 µM (inactive), respectively.
